Test results as given in patent US20100227921A1, “AMINO ACID AND PEPTIDE CARBAMATE PRODRUGS OF […] USES THEREOF” (SHIRE LLC, priority 2009, published 2010).
Several values for one entry are separate records, joined by “and”; a condition that tells them apart may be missing. Equal entries are not always repeated. Marks after values point to notes of the source that are not given here.

Key:
[1] = Comparative bioavailability after oral administration to rats (plasma LC-MS-MS); type: in vivo; conditions: male, Sprague Dawley, rat, plasma, po, 10 mg tapentadol free base equiv/kg, oral tapentadol valine carbamate 10 mg tapentadol free base equiv/kg
Description: Test substances, i.e., tapentadol or tapentadol valine carbamate were administered by oral gavage to groups of male Sprague Dawley rats.
(§1) Blood samples were taken at various times after administration and submitted to analysis for the parent drug and pro-drug using a validated LC-MS-MS assay. Pharmacokinetic parameters derived from the plasma analytical data were determined using Win Nonlin.

[2] = test system: guinea pig small intestine myenteric plexus longitudinal muscle; assay: Electrical field stimulation response of isolated guinea pig small intestine smooth muscle (ex vivo); conditions: isolated guinea pig ileum
Description: Strips of guinea pig small intestine myenteric plexus longitudinal muscle and mounted between platinum ring electrodes. The tissue was stretched to a steady tension of about 1 g and changes in force production were recorded using sensitive transducers.
The optimal voltage for stimulation was determined while the tissue was paced with electrical field stimulation (EFS) at 14 Hz, with a pulse width of 0.5 msec (Trains of pulses for 20 seconds, every 50 seconds).
EFS at optimal voltage continued throughout the protocol (stable responses=“baseline measurement of EFS”).
The 3 test conditions employed were as follows:
(1) Vehicle (deionised water, added at equivalent volume additions to test articles), (2) Tapentadol at 6 concentrations (10 nM, 100 nM, 1 μM, 3 μM, 10 μM & 30 μM) (3) Tapentadol valine carbamate at 6 concentrations (10 nM, 100 nM, 1 μM, 3 μM, 10 μM, & 30 μM).
Following 10 minutes of baseline EFS, first addition of test article or vehicle (deionized water) was performed.
Test concentrations were added in a non-cumulative manner with PSS washes between each addition. Next, TTX (Na+ channel blocker) was added to confirm EFS responses were elicited via nerve stimulation. EFS was then stopped.

[3] = Comparative in vivo bioavailability study in the dog (oral gavage, plasma LC-MS-MS)
Description: Test substances (i.e., tapentadol (1 mg/kg) and tapentadol valine carbamate (0.8 mg tapentadol base equivalents/kg)) were administered by oral gavage to a group of five dogs (dog nos. 1, 2, 3, 4 and 5) in a two-way crossover design. The characteristics of the test animals are set out in Table 3.
as §1

[4] = Stability of tapentadol valine carbamate in simulated gastric and intestinal fluids, water and pH 10 buffer; type: physicochemical
[5] = Comparative bioavailability after oral or intravenous administration to monkeys (plasma LC-MS-MS); type: in vivo, cynomolgus monkey; conditions: cynomolgus monkey, plasma, iv, male monkey, i.v. tapentadol valine carbamate 0.5 mg tapentadol free base equiv/kg, individual animals 1-5
Description: Test substances i.e., tapentadol and tapentadol valine carbamate were administered (either intravenously or orally) to a group of five male cynomolgus monkeys in a three way crossover design. The oral doses were given at 1 mg tapentadol base equivalents/kg while the intravenous dose was 0.5 mg/kg
Blood samples were taken at various times after administration and submitted to analysis for the parent drug and tapentadol valine carbamate using a validated LC-MS-MS assay. Pharmacokinetic parameters derived from the plasma analytical data were determined using Win Nonlin.

[6] = oral tapentadol valine carbamate 0.8 mg tapentadol base equiv/kg, individual dogs 1-5

Question: With `CC[C@H](c1cccc(OC(=O)N[C@H](C(=O)O)C(C)C)c1)[C@H](C)CN(C)C` (racemic) [Tapentadol valine carbamate, 2-[3-(3-Dimethylamino-1-ethyl-2-methyl-propyl)-phenoxycarbonylamino]-3-methyl-butyric acid] as the compound, how does the Cmax ([1]; individual animals 6-10, read-out: Cmax of tapentadol valine carbamate) read?
Answer: The Cmax was 85.8 ng/mL.

Question: What about the half-life ([1]; individual animals 6-10, read-out: t½ of tapentadol valine carbamate (converted)) of the same compound?
Answer: Its half-life is 4.08 h.

Question: What about the AUC(0-t) ([1]; mean, read-out: AUCt of tapentadol valine carbamate) of the same compound?
Answer: The AUC(0-t) was 567 ng·h/mL.

Question: And the Cmax ([1]; mean, read-out: Cmax of tapentadol valine carbamate)?
Answer: Its Cmax is 93.9 ng/mL.

Question: And the Tmax ([1]; median, read-out: Tmax of tapentadol valine carbamate)?
Answer: The Tmax was 1 h.

Question: And the EC50 ([2]; Cavia porcellus, EFS 14 Hz, non-cumulative 10 nM-30 μM, read-out: approximate EC50, effect on electrical field stimulation response)?
Answer: The EC50 was ~10 µM.

Question: And the “reduction in the opioid effects on ileal smooth muscle compared to tapentadol” value ([2]; EFS)?
Answer: The value was 50 fold.

Question: What about the half-life ([3]; Beagle, plasma, po, 0.8 mg/kg, oral tapentadol valine carbamate 0.8 mg tapentadol base equiv/kg, calculated as ln2/mean k, read-out: t½ of tapentadol valine carbamate (converted)) of the same compound?
Answer: Its half-life is 4.8 h.

Question: What about the Cmax ([3]; Beagle, plasma, po, 0.8 mg/kg, oral tapentadol valine carbamate 0.8 mg tapentadol base equiv/kg, individual dogs 1-5, read-out: Cmax of tapentadol valine carbamate) of the same compound?
Answer: Its Cmax is 42.8 ng/mL.

Question: And the AUC ([3]; Beagle, plasma, po, 0.8 mg/kg, oral tapentadol valine carbamate 0.8 mg tapentadol base equiv/kg, mean of 5 dogs, read-out: AUC of tapentadol valine carbamate)?
Answer: The AUC was 205 ng·h/mL.

Question: And the AUC(0-t) ([3]; Beagle, plasma, po, 0.8 mg/kg, oral tapentadol valine carbamate 0.8 mg tapentadol base equiv/kg, mean of 5 dogs, read-out: AUCt of tapentadol valine carbamate)?
Answer: Its AUC(0-t) is 192 ng·h/mL.

Question: What about the Cmax ([3]; Beagle, plasma, po, 0.8 mg/kg, oral tapentadol valine carbamate 0.8 mg tapentadol base equiv/kg, mean of 5 dogs, read-out: Cmax of tapentadol valine carbamate) of the same compound?
Answer: Its Cmax is 53.4 ng/mL.

Question: And the Tmax ([3]; Beagle, plasma, po, 0.8 mg/kg, oral tapentadol valine carbamate 0.8 mg tapentadol base equiv/kg, median of 5 dogs, read-out: Tmax of tapentadol valine carbamate)?
Answer: Its Tmax is 1 h.

Question: And the “increase of duration of sustainment of active drug in the blood” value ([3]; following administration of the prodrug compared to tapentadol alone)?
Answer: The value was “two to three fold”.

Question: What about the “duration of drug sustainment in plasma” value ([3]; oral prodrug vs oral tapentadol) of the same compound?
Answer: Its value is “doubling”.

Question: And the “AUC of tapentadol valine carbamate” value [3, 6]?
Answer: The value was 157 ng·h/mL and 126 ng·h/mL and 272 ng·h/mL and 221 ng·h/mL and 252 ng·h/mL.

Question: What about the “AUCt of tapentadol valine carbamate” value [3, 6] of the same compound?
Answer: Its value is 131 ng·h/mL and 119 ng·h/mL and 260 ng·h/mL and 208 ng·h/mL and 241 ng·h/mL.

Question: And the “Cmax of tapentadol valine carbamate” value [3, 6]?
Answer: Its value is 45.3 ng/mL and 62.3 ng/mL and 46.4 ng/mL and 70.0 ng/mL.

Question: What about the “T>50%Cmax of tapentadol valine carbamate” value [3, 6] of the same compound?
Answer: Its value is 1.5 h (4×) and 0.5 h.

Question: And the “Tmax of tapentadol valine carbamate” value [3, 6]?
Answer: Its value is 2 h.

Question: What about the “t½ of tapentadol valine carbamate” value [3, 6] of the same compound?
Answer: The value was 6.7 h and 3.0 h and 5.0 h and 5.9 h and 5.3 h.

Question: What about the “T>50%Cmax of tapentadol valine carbamate” value ([3]; oral tapentadol valine carbamate 0.8 mg tapentadol base equiv/kg, median of 5 dogs) of the same compound?
Answer: The value was 1.5^a h.

Question: What about the “Simulated gastric fluid (pH 1.1): % remaining after 2 h/37° C.” value ([4]; USP simulated gastric fluid pH 1.1, 2 h, 37° C., HPLC) of the same compound?
Answer: Its value is 100%.

Question: What about the “Simulated intestinal fluid (pH 6.8): % remaining after 2 h/37° C.” value ([4]; USP simulated intestinal fluid pH 6.8, 2 h, 37° C., HPLC) of the same compound?
Answer: Its value is 100%.

Question: And the “Distilled water (pH 5.9): % remaining after 2 h/20° C.” value ([4]; distilled water pH 5.9, 2 h, 20° C.)?
Answer: Its value is 100%.

Question: What about the “pH 10.0 buffer: % remaining after 2 h/20° C.” value ([4]; pH 10.0 buffer, 2 h, 20° C.) of the same compound?
Answer: Its value is 82%.

Question: And the “stability under the conditions existing in the GI tract” value ([4]; summary in words of Table 2)?
Answer: The value was “stable”.

Question: And the concentration at 0.083 h ([5]; 0.083 h)?
Answer: The concentration at 0.083 h was 790 ng/mL.

Question: What about the concentration at 0.25 h ([5]; 0.25 h) of the same compound?
Answer: Its concentration at 0.25 h is 783 ng/mL.

Question: What about the concentration at 1 h ([5]; 1 h) of the same compound?
Answer: The concentration at 1 h was 222 ng/mL.

Question: What about the concentration at 2 h ([5]; 2 h) of the same compound?
Answer: Its concentration at 2 h is 92.3 ng/mL.

Question: And the concentration at 4 h ([5]; 4 h)?
Answer: Its concentration at 4 h is 11.8 ng/mL.
